Measurements taken from ChEMBL document CHEMBL1144370, “3-Acyl-2,6-diaminopyridines as cyclin-dependent kinase inhibitors: synthesis and biological evaluation” (Bioorg Med Chem Lett, 2005).

Experiments:
[1] = In vitro inhibitory concentration against cyclin-dependent kinase 1; set-up: species or system Homo sapiens
A-375 = assay: Compound tested for anti-proliferative activity against A375 cells; type: functional, cell-based; conditions: Homo sapiens
[2] = target: Receptor tyrosine-protein kinase erbB-2 (Homo sapiens, UniProt P04626); assay: In vitro inhibitory concentration against HER2
Sequence of Receptor tyrosine-protein kinase erbB-2 (P04626 whole entry): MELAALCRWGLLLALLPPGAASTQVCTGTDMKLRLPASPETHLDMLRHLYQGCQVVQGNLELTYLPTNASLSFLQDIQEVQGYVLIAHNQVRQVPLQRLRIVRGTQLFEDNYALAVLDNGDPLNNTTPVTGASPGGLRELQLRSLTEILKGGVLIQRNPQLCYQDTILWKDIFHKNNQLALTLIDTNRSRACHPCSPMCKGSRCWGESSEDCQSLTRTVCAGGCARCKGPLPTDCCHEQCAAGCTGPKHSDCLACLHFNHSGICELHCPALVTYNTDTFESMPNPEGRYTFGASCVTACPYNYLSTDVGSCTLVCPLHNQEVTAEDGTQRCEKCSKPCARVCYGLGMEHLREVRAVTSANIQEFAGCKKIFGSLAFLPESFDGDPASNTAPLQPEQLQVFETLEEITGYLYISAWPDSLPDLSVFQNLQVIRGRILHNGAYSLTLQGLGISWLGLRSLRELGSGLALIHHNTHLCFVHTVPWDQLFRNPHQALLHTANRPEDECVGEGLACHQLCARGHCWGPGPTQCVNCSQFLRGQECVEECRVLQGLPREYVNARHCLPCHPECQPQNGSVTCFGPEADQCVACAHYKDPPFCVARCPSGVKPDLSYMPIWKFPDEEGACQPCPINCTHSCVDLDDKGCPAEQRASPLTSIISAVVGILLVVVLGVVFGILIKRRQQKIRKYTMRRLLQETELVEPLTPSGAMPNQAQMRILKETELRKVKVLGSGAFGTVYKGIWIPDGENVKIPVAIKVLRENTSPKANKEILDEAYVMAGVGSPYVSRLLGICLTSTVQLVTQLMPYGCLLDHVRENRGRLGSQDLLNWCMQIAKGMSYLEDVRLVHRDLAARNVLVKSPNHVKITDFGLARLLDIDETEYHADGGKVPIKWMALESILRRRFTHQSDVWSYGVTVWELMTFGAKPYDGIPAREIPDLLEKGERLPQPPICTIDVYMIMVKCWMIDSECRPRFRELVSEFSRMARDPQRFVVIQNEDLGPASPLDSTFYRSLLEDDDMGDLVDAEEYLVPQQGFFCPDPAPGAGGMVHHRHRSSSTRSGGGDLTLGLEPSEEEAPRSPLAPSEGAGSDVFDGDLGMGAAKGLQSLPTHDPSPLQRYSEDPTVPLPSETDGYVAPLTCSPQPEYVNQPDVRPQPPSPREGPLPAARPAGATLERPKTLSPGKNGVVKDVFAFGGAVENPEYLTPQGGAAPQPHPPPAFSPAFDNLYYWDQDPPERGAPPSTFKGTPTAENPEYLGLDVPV

[3] = target: Epidermal growth factor receptor (Homo sapiens, UniProt P00533); assay: In vitro inhibitory concentration against epidermal growth factor receptor
Sequence of Epidermal growth factor receptor (P00533 whole entry): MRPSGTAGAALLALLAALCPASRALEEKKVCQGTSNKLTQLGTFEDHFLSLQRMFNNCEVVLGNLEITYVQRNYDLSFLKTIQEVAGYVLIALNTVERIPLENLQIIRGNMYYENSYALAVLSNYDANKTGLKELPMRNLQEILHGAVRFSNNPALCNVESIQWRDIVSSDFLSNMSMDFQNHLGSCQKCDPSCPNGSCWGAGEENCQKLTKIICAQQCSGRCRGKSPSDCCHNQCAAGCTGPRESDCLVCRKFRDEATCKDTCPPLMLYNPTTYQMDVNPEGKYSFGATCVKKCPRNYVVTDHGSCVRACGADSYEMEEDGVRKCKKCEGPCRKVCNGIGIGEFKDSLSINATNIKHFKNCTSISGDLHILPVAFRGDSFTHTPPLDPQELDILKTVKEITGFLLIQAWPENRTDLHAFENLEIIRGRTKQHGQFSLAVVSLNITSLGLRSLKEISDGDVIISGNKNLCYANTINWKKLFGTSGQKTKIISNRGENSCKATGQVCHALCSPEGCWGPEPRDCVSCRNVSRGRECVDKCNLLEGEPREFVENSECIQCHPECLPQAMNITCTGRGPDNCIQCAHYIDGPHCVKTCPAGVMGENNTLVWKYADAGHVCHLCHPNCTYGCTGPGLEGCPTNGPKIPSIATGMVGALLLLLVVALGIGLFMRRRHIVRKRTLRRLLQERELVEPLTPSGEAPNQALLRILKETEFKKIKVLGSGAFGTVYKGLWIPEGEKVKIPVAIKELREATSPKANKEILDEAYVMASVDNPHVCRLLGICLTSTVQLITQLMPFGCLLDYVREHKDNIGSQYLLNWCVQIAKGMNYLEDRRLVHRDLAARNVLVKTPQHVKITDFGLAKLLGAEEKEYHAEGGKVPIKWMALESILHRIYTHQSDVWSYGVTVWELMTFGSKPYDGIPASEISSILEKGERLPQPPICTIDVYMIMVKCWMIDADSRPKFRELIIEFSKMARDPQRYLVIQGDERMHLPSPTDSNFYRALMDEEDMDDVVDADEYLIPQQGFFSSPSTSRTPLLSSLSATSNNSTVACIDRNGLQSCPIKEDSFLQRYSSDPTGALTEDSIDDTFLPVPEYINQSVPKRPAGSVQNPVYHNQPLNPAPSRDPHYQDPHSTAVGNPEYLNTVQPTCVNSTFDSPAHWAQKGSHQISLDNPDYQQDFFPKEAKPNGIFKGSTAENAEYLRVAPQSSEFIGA

[4] = target: Cyclin-dependent kinase 2 (Homo sapiens, UniProt P24941); assay: In vitro inhibitory concentration against cyclin-dependent kinase 2
HeLa = assay: Compound tested for anti-proliferative activity against HeLa cells; type: functional, cell-based; conditions: Homo sapiens
HCT-116 = assay: Compound tested for anti-proliferative activity against HCT116 cells; type: functional, cell-based; conditions: Homo sapiens
[5] = target: T1, Vascular endothelial growth factor receptor 2 (Homo sapiens, UniProt P35968); assay: In vitro inhibitory concentration against Vascular endothelial growth factor receptor 2
T1 sequence (P35968 whole entry): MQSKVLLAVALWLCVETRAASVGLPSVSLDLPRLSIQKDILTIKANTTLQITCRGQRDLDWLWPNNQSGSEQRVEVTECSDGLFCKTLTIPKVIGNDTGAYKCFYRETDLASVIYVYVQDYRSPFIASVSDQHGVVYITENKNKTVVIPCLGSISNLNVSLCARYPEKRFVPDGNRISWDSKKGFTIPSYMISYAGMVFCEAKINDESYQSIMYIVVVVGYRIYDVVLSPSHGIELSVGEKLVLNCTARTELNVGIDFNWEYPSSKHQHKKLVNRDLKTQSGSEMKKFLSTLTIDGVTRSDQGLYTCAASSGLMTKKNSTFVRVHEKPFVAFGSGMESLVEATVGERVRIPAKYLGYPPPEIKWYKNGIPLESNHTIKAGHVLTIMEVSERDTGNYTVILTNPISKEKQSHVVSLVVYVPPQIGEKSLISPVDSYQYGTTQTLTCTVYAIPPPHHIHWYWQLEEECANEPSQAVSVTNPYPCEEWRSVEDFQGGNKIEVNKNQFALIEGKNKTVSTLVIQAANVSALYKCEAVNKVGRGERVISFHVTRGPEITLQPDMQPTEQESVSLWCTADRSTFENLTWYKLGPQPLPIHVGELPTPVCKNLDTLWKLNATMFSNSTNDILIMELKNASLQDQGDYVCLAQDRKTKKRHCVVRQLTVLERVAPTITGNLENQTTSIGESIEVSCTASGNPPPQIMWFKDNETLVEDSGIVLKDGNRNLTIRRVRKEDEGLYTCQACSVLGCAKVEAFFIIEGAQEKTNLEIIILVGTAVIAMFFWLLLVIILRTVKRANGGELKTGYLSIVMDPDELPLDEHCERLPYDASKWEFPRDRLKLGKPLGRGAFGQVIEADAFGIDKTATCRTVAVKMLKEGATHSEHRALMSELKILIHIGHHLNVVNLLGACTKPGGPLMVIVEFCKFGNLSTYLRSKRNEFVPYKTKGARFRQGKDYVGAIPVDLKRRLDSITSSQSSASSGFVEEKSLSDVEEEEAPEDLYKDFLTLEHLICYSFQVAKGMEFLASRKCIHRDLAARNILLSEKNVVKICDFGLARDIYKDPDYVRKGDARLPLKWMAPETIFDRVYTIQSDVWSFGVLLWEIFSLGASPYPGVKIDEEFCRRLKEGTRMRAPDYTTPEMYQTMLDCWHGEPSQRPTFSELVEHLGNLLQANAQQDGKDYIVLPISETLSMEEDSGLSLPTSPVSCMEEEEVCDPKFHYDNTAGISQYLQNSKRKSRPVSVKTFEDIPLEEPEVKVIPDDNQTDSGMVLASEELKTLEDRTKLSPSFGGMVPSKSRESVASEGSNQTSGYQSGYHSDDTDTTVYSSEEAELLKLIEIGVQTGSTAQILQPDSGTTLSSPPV

[6] = target: T1, Vascular endothelial growth factor receptor 2; assay: In vitro inhibitory concentration against vascular endothelial growth factor receptor 2

Row | Structure (SMILES) | IC50 [1] | also measured
1 | Nc1nc(Nc2ccccc2NC(=O)c2ccccc2)ccc1C(=O)c1c(F)cccc1F | > 100 µM | –
2 | Nc1nc(Nc2cccc(Cl)c2)ccc1C(=O)c1c(F)cccc1F | 6.16 µM | –
3 | Nc1nc(Nc2ccccc2[N+](=O)[O-])ccc1C(=O)c1c(F)cccc1F | > 10 µM | –
4 | Nc1nc(Nc2ccc(S(=O)(=O)N(Cc3ccccc3)Cc3ccccc3)cc2)ccc1C(=O)c1c(F)cccc1F | > 10 µM | –
5 | CN(C)S(=O)(=O)c1ccc(Nc2ccc(C(=O)c3ccco3)c(N)n2)cc1 | 10.6 µM | –
6 | Nc1nc(Nc2cccc([N+](=O)[O-])c2)ccc1C(=O)c1c(F)cccc1F | 2.67 µM | –
7 | Nc1ccccc1Nc1ccc(C(=O)c2c(F)cccc2F)c(N)n1 | 11.6 µM | –
8 | Nc1nc(Nc2ccccc2)ccc1C(=O)c1c(F)cccc1F | 21.7 µM | –
9 | Nc1ccc(C(=O)c2ccccc2F)c(N)n1 | 8.2 µM | –
10 | CCN(CC)S(=O)(=O)c1ccc(Nc2ccc(C(=O)c3ccco3)c(N)n2)cc1 | > 100 µM | –
11 | Nc1ccc(C(=O)c2ccco2)c(N)n1 | > 100 µM | –
12 | CN(C)S(=O)(=O)c1ccc(Nc2ccc(C(=O)c3cccs3)c(N)n2)cc1 | 12.7 µM | –
13 | Nc1nc(Nc2ccccn2)ccc1C(=O)c1c(F)cccc1F | 12.3 µM | –
14 | Nc1nc(Nc2ccccc2NS(=O)(=O)c2ccccc2)ccc1C(=O)c1c(F)cccc1F | > 100 µM | –
15 | CC(=O)Nc1ccccc1Nc1ccc(C(=O)c2c(F)cccc2F)c(N)n1 | > 100 µM | –
16 | CCN(CC)S(=O)(=O)c1ccc(Nc2ccc(C(=O)c3ccccc3)c(N)n2)cc1 | > 100 µM | –
17 | Nc1ccc(C(=O)c2cccs2)c(N)n1 | > 100 µM | –
18 | Nc1nc(Nc2ccc(C(=O)O)cc2)ccc1C(=O)c1c(F)cccc1F | ~10 µM | –
19 | Nc1ccc(C(=O)c2c(F)cccc2F)c(N)n1 | 2.6 µM | –

These reach a lower IC50 [1]. Values come first.

Row | IC50 [1] | Structure (SMILES) | also measured
20 | 2.19 µM | CN(C)S(=O)(=O)c1ccc(Nc2ccc(C(=O)c3ccccc3)c(N)n2)cc1 | –
21 | 1.96 µM | CN(C)S(=O)(=O)c1ccc(Nc2ccc(C(=O)c3ccccc3F)c(N)n2)cc1 | –
22 | 1.37 µM | N#Cc1ccc(Nc2ccc(C(=O)c3c(F)cccc3F)c(N)n2)cc1 | –
23 | 1.2 µM | CCCCOc1cc(N)nc(N)c1C(=O)c1c(F)cccc1F | –
24 | 1.14 µM | CNc1ccc(Nc2ccc(C(=O)c3c(F)cccc3F)c(N)n2)cc1 | –
25 | 1.1 µM | Nc1ccc(C(=O)c2ccccc2)c(N)n1 | –
26 | 1 µM | CCCCOc1cc(Nc2ccc(S(=O)(=O)N(C)C)cc2)nc(N)c1C(=O)c1c(F)cccc1F | –
27 | 0.96 µM | Nc1nc(Nc2ccc([N+](=O)[O-])cc2)ccc1C(=O)c1c(F)cccc1F | –
28 | 0.95 µM | NC(=O)c1ccc(Nc2ccc(C(=O)c3c(F)cccc3F)c(N)n2)cc1 | –
29 | 0.75 µM | Nc1ccc(Nc2ccc(C(=O)c3c(F)cccc3F)c(N)n2)cc1 | –
30 | 0.74 µM | Nc1nc(Nc2ccc(NS(=O)(=O)c3ccccc3)cc2)ccc1C(=O)c1c(F)cccc1F | –
31 | 0.59 µM | CN(C)S(=O)(=O)c1ccc(Nc2ccc(C(=O)c3c(F)cccc3F)c(N)n2)cc1 | IC50 (A-375): > 10 µM; IC50 [2]: > 100 µM; IC50 [6]: > 100 µM; IC50 [3]: > 100 µM; IC50 [4]: 0.5 µM; IC50 (HeLa): > 10 µM; IC50 (HCT-116): > 10 µM
32 | 0.36 µM | Nc1nc(Nc2ccc(S(N)(=O)=O)cc2)ccc1C(=O)c1c(F)cccc1F | IC50 (A-375): 6.5 µM; IC50 [2]: > 100 µM; IC50 [3]: > 100 µM; IC50 [4]: 0.18 µM; IC50 (HeLa): 17.2 µM; IC50 (HCT-116): 16.5 µM; IC50 [5]: > 100 µM
33 | 0.26 µM | CCCCOc1cc(Nc2ccc(S(N)(=O)=O)cc2)nc(N)c1C(=O)c1c(F)cccc1F | IC50 (A-375): 2.9 µM; IC50 [2]: > 100 µM; IC50 [3]: > 100 µM; IC50 [4]: 0.084 µM; IC50 (HeLa): 10.7 µM; IC50 (HCT-116): 6.7 µM; IC50 [5]: > 100 µM
